Data taken from ChEMBL document CHEMBL3882725, “Indazole derivatives as JNK inhibitors and compositions and methods related thereto” (2002).

Target: Mitogen-activated protein kinase 9 (Homo sapiens, UniProt P45984)
Test: Inhibition of His6-tagged JNK2 (unknown origin) assessed as reduction in c-Jun phosphorylation using GST-c-Jun (1 to 79 residues) and [gamma32P]ATP incubated for 1 hr by scintillation counting assay

Sequence of Mitogen-activated protein kinase 9 (P45984 whole entry, the tested form may be a part): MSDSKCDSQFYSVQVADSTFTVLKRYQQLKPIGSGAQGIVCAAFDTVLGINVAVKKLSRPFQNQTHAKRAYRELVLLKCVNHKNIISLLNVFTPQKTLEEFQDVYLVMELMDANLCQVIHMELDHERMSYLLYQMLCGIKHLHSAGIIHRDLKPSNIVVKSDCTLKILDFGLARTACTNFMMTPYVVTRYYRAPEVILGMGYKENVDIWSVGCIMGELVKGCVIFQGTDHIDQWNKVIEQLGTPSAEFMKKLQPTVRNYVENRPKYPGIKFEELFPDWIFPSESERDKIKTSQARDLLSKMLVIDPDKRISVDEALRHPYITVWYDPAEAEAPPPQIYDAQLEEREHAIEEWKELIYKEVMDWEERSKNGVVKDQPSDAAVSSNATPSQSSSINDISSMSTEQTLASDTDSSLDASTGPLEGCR

| Structure (SMILES) | IC50 [µM] |
| --- | --- |
| CN(C)CCNC(=O)c1ccc2[nH]nc(-c3cc4ccccc4o3)c2c1 | 1 to 10 |
| CN(C)Cc1nc(-c2ccc3[nH]nc(-c4cccc(NC(=O)[C@H](O)c5ccccc5)c4)c3c2)n[nH]1 | 0.5 to 10 |
| CN(C)CCNC(=O)c1cccc(-c2n[nH]c3ccc(-c4ncn[nH]4)cc23)c1 | 0.5 to 10 |
| O=C(N[C@H]1CCc2ccccc21)c1cccc(-c2n[nH]c3ccc(-c4ncn[nH]4)cc23)c1 | 0.5 to 10 |
| CN(C)CCOc1cccc(-c2n[nH]c3ccc(-c4nnn[nH]4)cc23)c1 | 1 to 10 |
| c1cc(OCCN2CCOCC2)cc(-c2n[nH]c3ccc(-c4ncn[nH]4)cc23)c1 | 1 to 10 |
| O=C(Nc1cccc(-c2n[nH]c3ccc(-c4nc[nH]n4)cc23)c1)c1ccc(Cl)nc1 | 1 to 10 |
| O=C(O)CCc1nnc(-c2ccc3[nH]nc(-c4ccc(F)cc4)c3c2)[nH]1 | 1 to 10 |
| O=C(Nc1cccc(-c2n[nH]c3ccc(-c4nc[nH]n4)cc23)c1)[C@@H](O)c1ccccc1 | 0.5 to 10 |
| O=C(Nc1cccc(-c2n[nH]c3ccc(-c4nc[nH]n4)cc23)c1)C1CCCC1 | 1 to 10 |
| NC(=O)c1ccc2[nH]nc(-c3cccc(NC(=O)CCN4CCCCC4)c3)c2c1 | 1 to 10 |
| CC(=O)O[C@@H](C)C(=O)Nc1cccc(-c2n[nH]c3ccc(-c4nn[nH]n4)cc23)c1 | 0.5 to 10 |
| CN(C)CCc1nc(-c2ccc3[nH]nc(-c4ccc(F)cc4)c3c2)n[nH]1 | 1 to 10 |
| CC(O)C(=O)Nc1cccc(-c2n[nH]c3ccc(-c4nc[nH]n4)cc23)c1 (configuration not stated) | 0.5 to 10 |
| CCN(CC)Cc1nc(-c2ccc3[nH]nc(-c4ccc(F)cc4)c3c2)n[nH]1 | 1 to 10 |
| O=C(NCCOc1cccc(-c2n[nH]c3ccc(-c4ncn[nH]4)cc23)c1)OCc1ccccc1 | 1 to 10 |
| O=C(N[C@@H]1c2ccccc2C[C@@H]1O)c1cccc(-c2n[nH]c3ccc(-c4ncn[nH]4)cc23)c1 | 1 to 10 |
| O=C(N[C@H]1c2ccccc2C[C@H]1O)c1cccc(-c2n[nH]c3ccc(-c4ncn[nH]4)cc23)c1 | 1 to 10 |
| CC(C)(C)CNC(=O)c1cccc(-c2n[nH]c3ccc(-c4ncn[nH]4)cc23)c1 | 1 to 10 |
| COCC(=O)Nc1cccc(-c2n[nH]c3ccc(C(N)=O)cc23)c1 | 1 to 10 |
| NCCOc1cccc(-c2n[nH]c3ccc(-c4ncn[nH]4)cc23)c1 | ≤ 10 |
| CN(C)CCCOc1cccc(-c2n[nH]c3ccc(-c4nnn[nH]4)cc23)c1 | 0.5 to 10 |
| CC(C)CNC(=O)c1ccc2[nH]nc(-c3cc4ccccc4o3)c2c1 | 1 to 10 |

| Structure (SMILES) | IC50 [µM] |
| --- | --- |
| O=C(Nc1cccc(-c2n[nH]c3ccc(-c4nc[nH]n4)cc23)c1)C(=O)c1ccco1 | 1 to 10 |
| O=C(NCc1ccc(F)cc1)c1cccc(-c2n[nH]c3ccc(-c4ncn[nH]4)cc23)c1 | 0.5 to 10 |
| CNCc1nc(-c2ccc3[nH]nc(-c4ccc(F)cc4)c3c2)n[nH]1 | 0.5 to 10 |
| C[C@@H](NC(=O)c1cccc(-c2n[nH]c3ccc(-c4ncn[nH]4)cc23)c1)c1ccccc1 | 0.5 to 10 |
| O=C(Nc1cccc(-c2n[nH]c3ccc(-c4nc[nH]n4)cc23)c1)C1CC1 | 1 to 10 |
| O=C(Nc1cccc(-c2n[nH]c3ccc(-c4nc[nH]n4)cc23)c1)C(=O)c1c[nH]c2ccccc12 | 1 to 10 |
| c1cc(OCCCN2CCCCC2)cc(-c2n[nH]c3ccc(-c4ncn[nH]4)cc23)c1 | 0.5 to 10 |
| NC(=O)c1ccc2[nH]nc(-c3cccc(NC(=O)c4cccnc4)c3)c2c1 | 1 to 10 |
| CC(c1nc(-c2ccc3[nH]nc(-c4ccc(F)cc4)c3c2)n[nH]1)N(C)C (configuration not stated) | 0.5 to 10 |
| O=C(O)C(=O)Nc1cccc(-c2n[nH]c3ccc(-c4nc[nH]n4)cc23)c1 | 0.5 to 10 |
| CN(C)CCCOc1cccc(-c2n[nH]c3ccc(-c4ncn[nH]4)cc23)c1 | 1 to 10 |
| CN(C)Cc1nc(-c2ccc3[nH]nc(-c4cccc(NC(=O)CC(C)(C)C)c4)c3c2)n[nH]1 | 0.5 to 10 |
| O=C(Nc1cccc(-c2n[nH]c3ccc(-c4nc[nH]n4)cc23)c1)c1cc2ccccc2s1 | 1 to 10 |
| COCCNC(=O)c1ccc2[nH]nc(-c3cc4ccccc4o3)c2c1 | 1 to 10 |
| CC(=O)O[C@@H](C)C(=O)Nc1cccc(-c2n[nH]c3ccc(C(N)=O)cc23)c1 | 0.5 to 10 |
| O=C(Nc1cccc(-c2n[nH]c3ccc(-c4nc[nH]n4)cc23)c1)[C@H](O)c1ccccc1 | 0.5 to 10 |
| CN(C)Cc1nnc(-c2ccc3[nH]nc(-c4ccc(F)cc4)c3c2)[nH]1 | 0.5 to 10 |
| OC1CCN(Cc2nnc(-c3ccc4[nH]nc(-c5ccc(F)cc5)c4c3)[nH]2)CC1 | 1 to 10 |
| CC(Oc1ccccc1)C(=O)Nc1cccc(-c2n[nH]c3ccc(-c4nc[nH]n4)cc23)c1 (configuration not stated) | 0.5 to 10 |
| CC(C)(C)NC(=O)c1cccc(-c2n[nH]c3ccc(-c4ncn[nH]4)cc23)c1 | 0.5 to 10 |
| O=C(Nc1cccc(-c2n[nH]c3ccc(-c4nc[nH]n4)cc23)c1)C(O)c1ccccc1 (configuration not stated) | 0.5 to 10 |
| O=C(CCc1ccccc1)Nc1cccc(-c2n[nH]c3ccc(-c4nc[nH]n4)cc23)c1 | 0.5 to 10 |
| CC(C)(NC(=O)c1cccc(-c2n[nH]c3ccc(-c4ncn[nH]4)cc23)c1)c1ccccc1 | 0.5 to 10 |

Next, values leading:

| IC50 [µM] | Structure (SMILES) |
| --- | --- |
| 1 to 10 | CN(C)CC(=O)Nc1cccc(-c2n[nH]c3ccc(C(N)=O)cc23)c1 |
| 1 to 10 | Nc1nnc(-c2ccc3[nH]nc(-c4ccc(F)cc4)c3c2)[nH]1 |
| 0.5 to 10 | O=C(CC1CCCCC1)Nc1cccc(-c2n[nH]c3ccc(-c4nc[nH]n4)cc23)c1 |
| 1 to 10 | c1cc(OCCN2CCNCC2)cc(-c2n[nH]c3ccc(-c4ncn[nH]4)cc23)c1 |
| 1 to 10 | O=C1CCCN1CCOc1cccc(-c2n[nH]c3ccc(-c4ncn[nH]4)cc23)c1 |
| 0.5 to 10 | COc1ccc(-c2n[nH]c3ccc(-c4nnn[nH]4)cc23)cc1OC |
| 0.5 to 10 | CC(C)(C)CC(=O)Nc1cccc(-c2n[nH]c3ccc(-c4nc[nH]n4)cc23)c1 |
| 1 to 10 | NC(=O)c1ccc2[nH]nc(-c3cccc(N)c3)c2c1 |
| 0.5 to 10 | NC(=O)c1ccc2[nH]nc(-c3cccc(NC(=O)c4ccco4)c3)c2c1 |
| ≤ 10 | CN1CCN(C(=O)c2cccc(-c3n[nH]c4ccc(-c5ncn[nH]5)cc34)c2)CC1 |
| 0.5 to 10 | NC(=O)c1ccc2[nH]nc(-c3cccc(NC(=O)Cc4ccccc4)c3)c2c1 |
| 1 to 10 | O=C(Nc1ccc(-c2n[nH]c3ccc(-c4ncn[nH]4)cc23)cc1)c1ccco1 |
| 1 to 10 | CC(=O)N1CCN(Cc2nnc(-c3ccc4[nH]nc(-c5ccc(F)cc5)c4c3)[nH]2)CC1 |
| 1 to 10 | Fc1ccc(-c2n[nH]c3ccc(-c4n[nH]c(CN5CCCCC5)n4)cc23)cc1 |
| 0.5 to 10 | O=C(NCc1ccccc1)c1cccc(-c2n[nH]c3ccc(-c4ncn[nH]4)cc23)c1 |
| 0.5 to 10 | O=C(N[C@@H]1CCc2ccccc21)c1cccc(-c2n[nH]c3ccc(-c4ncn[nH]4)cc23)c1 |
| 1 to 10 | O=C(CCN1CCCCC1)Nc1cccc(-c2n[nH]c3ccc(-c4nc[nH]n4)cc23)c1 |
| 0.5 to 10 | C[C@H](O)C(=O)Nc1cccc(-c2n[nH]c3ccc(-c4nn[nH]n4)cc23)c1 |
| 0.5 to 10 | O=C(Nc1cccc(-c2n[nH]c3ccc(-c4nc[nH]n4)cc23)c1)c1ccccn1 |
| 1 to 10 | NC(=O)c1ccc2[nH]nc(-c3cccc(NC(=O)C4CCNCC4)c3)c2c1 |
| 0.5 to 10 | CCCCC(=O)Nc1cccc(-c2n[nH]c3ccc(-c4nc[nH]n4)cc23)c1 |
| 0.5 to 10 | O=C(NC1Cc2ccccc2C1)c1cccc(-c2n[nH]c3ccc(-c4ncn[nH]4)cc23)c1 |
| 1 to 10 | CC(=O)N1CCN(CCOc2cccc(-c3n[nH]c4ccc(-c5ncn[nH]5)cc34)c2)CC1 |
| 0.5 to 10 | CN(C)CCCOc1ccc(-c2n[nH]c3ccc(-c4nnn[nH]4)cc23)cc1 |
| 1 to 10 | CN(C)CCCNC(=O)c1ccc2[nH]nc(-c3cc4ccccc4o3)c2c1 |
| 1 to 10 | O=C(/C=C/c1ccccc1)Nc1cccc(-c2n[nH]c3ccc(-c4nc[nH]n4)cc23)c1 |

| IC50 [µM] | Structure (SMILES) |
| --- | --- |
| 1 to 10 | C[C@H](NC(=O)c1cccc(-c2n[nH]c3ccc(-c4ncn[nH]4)cc23)c1)c1ccccc1 |
| 0.5 to 10 | O=C(NCC1CC1)c1cccc(-c2n[nH]c3ccc(-c4ncn[nH]4)cc23)c1 |
| 1 to 10 | Fc1ccc(-c2n[nH]c3ccc(-c4nnc(CN5CCOCC5)o4)cc23)cc1 |
| 0.5 to 10 | COCCC(=O)Nc1cccc(-c2n[nH]c3ccc(-c4nn[nH]n4)cc23)c1 |
| 0.5 to 10 | O=C(Nc1cccc(-c2n[nH]c3ccc(-c4nc[nH]n4)cc23)c1)c1ccoc1 |
| 0.5 to 10 | CCCC(=O)Nc1cccc(-c2n[nH]c3ccc(-c4nc[nH]n4)cc23)c1 |
| 1 to 10 | c1cc(OCCN2CCCC2)cc(-c2n[nH]c3ccc(-c4ncn[nH]4)cc23)c1 |
| 0.5 to 10 | CN(C)CC(=O)Nc1cccc(-c2n[nH]c3ccc(-c4nc[nH]n4)cc23)c1 |
| 0.5 to 10 | O=C(Nc1cccc(-c2n[nH]c3ccc(-c4nn[nH]n4)cc23)c1)c1cccnc1 |
| 1 to 10 | O=C(Nc1cccc(-c2n[nH]c3ccc(-c4nc[nH]n4)cc23)c1)C(=O)c1ccccc1 |
| 1 to 10 | Fc1ccc(-c2n[nH]c3ccc(-c4n[nH]c(CN5CCOCC5)n4)cc23)cc1 |
| 1 to 10 | COCCNc1cccc(-c2n[nH]c3ccc(C(N)=O)cc23)c1 |
| 1 to 10 | CN(C)CCOc1cccc(-c2n[nH]c3ccc(-c4ncn[nH]4)cc23)c1 |
| 0.5 to 10 | O=C(Cc1ccc(F)cc1)Nc1cccc(-c2n[nH]c3ccc(-c4nc[nH]n4)cc23)c1 |
| 0.5 to 10 | Fc1ccc(-c2n[nH]c3ccc(-c4n[nH]c(C5CCCN5)n4)cc23)cc1 (configuration not stated) |
| 1 to 10 | c1cc(OCCN2CCCCCC2)cc(-c2n[nH]c3ccc(-c4ncn[nH]4)cc23)c1 |
| 1 to 10 | CNC(=O)c1ccc2[nH]nc(-c3cc4ccccc4o3)c2c1 |
| 0.5 to 10 | CN(C)Cc1nc(-c2ccc3[nH]nc(-c4cccc(NC(=O)c5cccnc5)c4)c3c2)n[nH]1 |
| ≤ 10 | Cc1ccc2[nH]nc(-c3ccc(F)cc3)c2c1 |
| 0.5 to 10 | O=C(Nc1cccc(-c2n[nH]c3ccc(-c4nc[nH]n4)cc23)c1)c1ccno1 |
| 0.5 to 10 | CC(C)CC(=O)Nc1cccc(-c2n[nH]c3ccc(-c4n[nH]c(CN(C)C)n4)cc23)c1 |
| 1 to 10 | CC(C)NC(=O)c1ccc2[nH]nc(-c3cc4ccccc4o3)c2c1 |
| 0.5 to 10 | O=C(NCc1cccnc1)c1cccc(-c2n[nH]c3ccc(-c4ncn[nH]4)cc23)c1 |
| 1 to 10 | CC(=O)NCCOc1cccc(-c2n[nH]c3ccc(-c4ncn[nH]4)cc23)c1 |
| 1 to 10 | Clc1ccccc1-c1n[nH]c2ccc(-c3ncn[nH]3)cc12 |
